From PMC7302004, “Tandem gene duplications drive divergent evolution of caffeine and crocin biosynthetic pathways in plants” (BMC Biology, 2020)

Assays:
GjCCD4a = GjCCD4a (Gardenia jasminoides, UniProt A0A288W8F9); test: in bacterio carotenoid cleavage, UPLC-DAD and LC-MS; conditions: E. coli accumulating zeaxanthin; product crocetin dialdehyde
GjALDH2C3 = molecular target: T1, GjALDH2C3 (Gardenia jasminoides, UniProt A0A288W8F8); test: in vitro oxidation, UPLC-DAD and LC-MS; type: biochemical; conditions: products crocetin and crocetin semialdehyde
T1 sequence (A0A288W8F8 1-503): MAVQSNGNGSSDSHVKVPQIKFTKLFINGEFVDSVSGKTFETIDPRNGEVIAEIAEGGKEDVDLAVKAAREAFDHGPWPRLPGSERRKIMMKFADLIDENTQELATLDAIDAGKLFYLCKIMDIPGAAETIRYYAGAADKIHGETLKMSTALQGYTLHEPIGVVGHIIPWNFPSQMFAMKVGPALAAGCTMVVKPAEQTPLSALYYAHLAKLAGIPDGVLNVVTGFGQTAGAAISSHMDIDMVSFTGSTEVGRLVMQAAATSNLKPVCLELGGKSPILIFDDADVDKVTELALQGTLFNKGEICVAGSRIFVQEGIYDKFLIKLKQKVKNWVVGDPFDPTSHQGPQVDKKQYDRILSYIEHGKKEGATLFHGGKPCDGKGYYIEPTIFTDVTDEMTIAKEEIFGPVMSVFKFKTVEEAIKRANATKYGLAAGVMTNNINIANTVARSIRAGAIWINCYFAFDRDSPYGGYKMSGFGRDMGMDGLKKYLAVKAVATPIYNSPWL

GjUGT74F8 [1] = molecular target: T2, GjUGT74F8 (Gardenia jasminoides, UniProt Z9ZI51R9R0); test: in vitro de-glucosylation, UPLC-DAD and LC-MS; type: biochemical; conditions: reversible; product crocin IV
T2 sequence (Z9ZI51R9R0 1-457): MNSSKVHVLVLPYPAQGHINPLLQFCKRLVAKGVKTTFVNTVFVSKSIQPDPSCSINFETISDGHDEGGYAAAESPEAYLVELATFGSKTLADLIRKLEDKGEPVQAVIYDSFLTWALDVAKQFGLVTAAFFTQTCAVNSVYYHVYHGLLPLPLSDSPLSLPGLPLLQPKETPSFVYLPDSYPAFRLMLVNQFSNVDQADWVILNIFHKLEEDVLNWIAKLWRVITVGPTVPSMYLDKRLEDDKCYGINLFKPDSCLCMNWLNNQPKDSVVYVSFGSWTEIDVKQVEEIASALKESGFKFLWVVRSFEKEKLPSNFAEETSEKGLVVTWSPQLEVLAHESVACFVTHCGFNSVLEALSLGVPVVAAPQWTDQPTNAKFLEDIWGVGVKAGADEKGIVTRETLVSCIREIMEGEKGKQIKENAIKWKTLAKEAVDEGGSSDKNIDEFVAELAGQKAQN

GjUGT94E13 = molecular target: T3, GjUGT94E13 (Gardenia jasminoides, UniProt A0A288W8G7); test: in vitro glucosylation, UPLC-DAD and LC-MS; type: biochemical; conditions: product crocin I
T3 sequence (A0A288W8G7 1-446): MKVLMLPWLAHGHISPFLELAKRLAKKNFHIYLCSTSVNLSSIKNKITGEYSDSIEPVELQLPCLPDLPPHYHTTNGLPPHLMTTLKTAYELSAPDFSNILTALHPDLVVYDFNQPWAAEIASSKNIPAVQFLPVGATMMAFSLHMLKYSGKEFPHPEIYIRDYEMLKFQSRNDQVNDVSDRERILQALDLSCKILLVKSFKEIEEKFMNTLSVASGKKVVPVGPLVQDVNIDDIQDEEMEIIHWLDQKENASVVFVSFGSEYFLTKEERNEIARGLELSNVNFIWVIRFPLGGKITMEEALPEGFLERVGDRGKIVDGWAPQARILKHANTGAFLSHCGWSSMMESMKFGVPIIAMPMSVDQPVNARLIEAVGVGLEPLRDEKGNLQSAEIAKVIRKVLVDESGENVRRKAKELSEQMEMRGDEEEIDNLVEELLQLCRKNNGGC

GjUGT74F8 [2] = molecular target: T2, GjUGT74F8; test: in vitro glucosylation, UPLC-DAD and LC-MS; type: biochemical; conditions: products crocin III and crocin V
GjUGT75L6 = molecular target: T4, GjUGT75L6 (Gardenia jasminoides, UniProt F8WKW0); conditions: purification not stated in main text
T4 construct: gene UGT75L6
T4 sequence (F8WKW0 whole entry): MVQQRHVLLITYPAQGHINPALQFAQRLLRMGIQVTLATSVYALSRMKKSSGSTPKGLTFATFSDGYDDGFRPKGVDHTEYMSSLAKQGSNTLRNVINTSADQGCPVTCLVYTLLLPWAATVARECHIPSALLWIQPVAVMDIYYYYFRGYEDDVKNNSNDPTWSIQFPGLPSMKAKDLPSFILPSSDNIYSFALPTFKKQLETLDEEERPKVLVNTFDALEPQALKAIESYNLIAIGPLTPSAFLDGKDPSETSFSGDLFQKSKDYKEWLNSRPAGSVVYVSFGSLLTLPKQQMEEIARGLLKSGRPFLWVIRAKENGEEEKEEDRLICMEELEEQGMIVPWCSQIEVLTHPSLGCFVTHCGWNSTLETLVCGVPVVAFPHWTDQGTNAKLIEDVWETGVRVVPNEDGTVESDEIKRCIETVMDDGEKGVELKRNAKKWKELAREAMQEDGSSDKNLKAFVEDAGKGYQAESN

GjCCD4a, sequence (A0A288W8F9 entry or part of it): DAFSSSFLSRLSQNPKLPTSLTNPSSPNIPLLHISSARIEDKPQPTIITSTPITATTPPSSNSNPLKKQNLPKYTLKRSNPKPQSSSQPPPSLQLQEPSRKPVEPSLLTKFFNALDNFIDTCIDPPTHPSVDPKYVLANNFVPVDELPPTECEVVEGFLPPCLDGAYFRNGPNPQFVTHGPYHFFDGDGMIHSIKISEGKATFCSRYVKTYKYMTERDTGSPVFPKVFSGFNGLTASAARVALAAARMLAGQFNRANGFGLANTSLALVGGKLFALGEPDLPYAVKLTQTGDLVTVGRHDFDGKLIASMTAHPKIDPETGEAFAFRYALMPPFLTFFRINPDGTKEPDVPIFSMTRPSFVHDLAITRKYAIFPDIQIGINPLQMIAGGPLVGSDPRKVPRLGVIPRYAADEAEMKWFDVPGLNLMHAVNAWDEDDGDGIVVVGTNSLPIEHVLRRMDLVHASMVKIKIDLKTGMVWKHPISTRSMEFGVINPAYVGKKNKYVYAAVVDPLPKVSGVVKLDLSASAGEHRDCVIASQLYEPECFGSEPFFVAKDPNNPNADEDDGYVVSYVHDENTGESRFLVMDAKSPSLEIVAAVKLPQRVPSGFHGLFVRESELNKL

CC1=C(/C=C/C(C)=C/C=C/C(C)=C/C=C/C=C(C)/C=C/C=C(C)/C=C/C2=C(C)C[C@@H](O)CC2(C)C)C(C)(C)C[C@H](O)C1 [zeaxanthin]
in bacterio carotenoid cleavage, UPLC-DAD and LC-MS (GjCCD4a): a new product with a retention time and characteristic fragment ions

C\C(C=O)=C/C=C/C(C)=C/C=C/C=C(C)/C=C/C=C(\C)C=O [crocetin dialdehyde]
in vitro oxidation, UPLC-DAD and LC-MS (GjALDH2C3): Incubation of crocetin dialdehyde with GjALDH2C3 yielded two new peaks

CC(/C=C/C=C(\C)C(=O)O[C@@H]1O[C@H](CO)[C@@H](O)[C@H](O)[C@H]1O)=C\C=C\C=C(C)\C=C\C=C(/C)C(=O)O[C@@H]1O[C@H](CO[C@@H]2O[C@H](CO)[C@@H](O)[C@H](O)[C@H]2O)[C@@H](O)[C@H](O)[C@H]1O [crocin II]
in vitro de-glucosylation, UPLC-DAD and LC-MS (GjUGT74F8 [1]): reversible conversion of crocin II to crocin IV and vice versa was observed | in vitro glucosylation, UPLC-DAD and LC-MS (GjUGT94E13): GjUGT94E13 could efficiently catalyze the glycosylation of crocins II and III to crocin I

CC(/C=C/C=C(\C)C(=O)O)=C\C=C\C=C(C)\C=C\C=C(/C)C(=O)O [crocetin]
in vitro glucosylation, UPLC-DAD and LC-MS (GjUGT74F8 [2]): Upon in vitro incubation of GjUGT74F8 with crocetin, two new peaks | in vitro glucosylation, UPLC (GjUGT75L6): GjUGT75L6, and GjUGT94E13, were able to glycosylate crocetin and/or crocins
